For this assay, the system named is human mixed lymphocyte reaction (MLR). The assay is described as follows: human mixed lymphocyte reaction (MLR), serum free variation. The conditions noted are these: serum-free medium AIM V, Table 3. The format is cell-based. How it is done:
In vitro Assay of Biological Activity (Serum Free MLR)
The in viitro immunosuppressant activity of the compounds of the present invention can also be determined using a variation of the human mixed lymphocyte reaction (MLR) assay described by Kino, T. et al. in Transplantation Proceedings, XIX(5):36-39, Suppl. 6 (1987). In this assay, the cell culture was performed in a serum-free medium, AIM V (GibcoBRL Life Technologies, Grand Island, N.Y.), instead of the usual RPMI 1640 plus 10% heat-inactivated fetal bovine serum medium. The final cell concentrations of the responder and stimulator peripheral blood mononuclear cells were, respectively, 5×10^5/mL and 2×10^6/mL of cells pooled from four donors.

The IC50 is the concentration that inhibits the measured activity by half. `CC[C@@H]1/C=C(\C)C[C@H](C)C[C@H](OC)[C@H]2O[C@@](O)(C(=O)C(=O)N3CCCC[C@H]3C(=O)O[C@H](/C(C)=C/[C@@H]3CC[C@H]([S+]([O-])CC(=O)OCc4ccccc4)[C@H](OC)C3)[C@H](C)[C@@H](O)CC1=O)[C@H](C)C[C@@H]2OC` (stereo partly shown) [Example 55] gave a concentration for half-maximal inhibition (IC50) (Homo sapiens, Lymphocyte) of 8.1 nM.

For the compound `CC[C@@H]1/C=C(\C)C[C@H](C)C[C@H](OC)[C@H]2O[C@@](O)(C(=O)C(=O)N3CCCC[C@H]3C(=O)O[C@H](/C(C)=C/[C@@H]3CC[C@H](S(=O)(=O)CC(=O)OCc4ccccc4)[C@H](OC)C3)[C@H](C)[C@@H](O)CC1=O)[C@H](C)C[C@@H]2OC` [Example 56], the IC50 (Homo sapiens, Lymphocyte) was found to be 8.1 nM.

For `CC[C@@H]1/C=C(\C)C[C@H](C)C[C@H](OC)[C@H]2O[C@@](O)(C(=O)C(=O)N3CCCC[C@H]3C(=O)O[C@H](/C(C)=C/[C@@H]3CC[C@H](S(=O)(=O)CC(=O)OC)[C@H](OC)C3)[C@H](C)[C@@H](O)CC1=O)[C@H](C)C[C@@H]2OC` [Example 57], for the setting “Homo sapiens, Lymphocyte”, half-maximal inhibition (IC50) was put at 2 nM.

Regarding `CC[C@@H]1/C=C(\C)C[C@H](C)C[C@H](OC)[C@H]2O[C@@](O)(C(=O)C(=O)N3CCCC[C@H]3C(=O)O[C@H](/C(C)=C/[C@@H]3CC[C@H](S(=O)(=O)CC(=O)OC(C)(C)C)[C@H](OC)C3)[C@H](C)[C@@H](O)CC1=O)[C@H](C)C[C@@H]2OC` [Example 58], the IC50 (Homo sapiens, Lymphocyte) came to 2.1 nM.

Take `CCOC(=O)CS(=O)(=O)[C@H]1CC[C@@H](/C=C(\C)[C@H]2OC(=O)[C@@H]3CCCCN3C(=O)C(=O)[C@]3(O)O[C@H]([C@@H](OC)C[C@@H](C)C/C(C)=C/[C@@H](CC)C(=O)C[C@H](O)[C@H]2C)[C@@H](OC)C[C@H]3C)C[C@H]1OC` [Example 59]: the IC50 (Homo sapiens, Lymphocyte) amounted to 7.5 nM.

`CCOC(=O)CC[S+]([O-])[C@H]1CC[C@@H](/C=C(\C)[C@H]2OC(=O)[C@@H]3CCCCN3C(=O)C(=O)[C@]3(O)O[C@H]([C@@H](OC)C[C@@H](C)C/C(C)=C/[C@@H](CC)C(=O)C[C@H](O)[C@H]2C)[C@@H](OC)C[C@H]3C)C[C@H]1OC` (stereo partly shown) [Example 60]: the IC50 (Homo sapiens, Lymphocyte) was 6.1 nM.

For the compound `CCOC(=O)CCS(=O)(=O)[C@H]1CC[C@@H](/C=C(\C)[C@H]2OC(=O)[C@@H]3CCCCN3C(=O)C(=O)[C@]3(O)O[C@H]([C@@H](OC)C[C@@H](C)C/C(C)=C/[C@@H](CC)C(=O)C[C@H](O)[C@H]2C)[C@@H](OC)C[C@H]3C)C[C@H]1OC` [Example 61], half-maximal inhibition (Homo sapiens, Lymphocyte) (IC50) was put at 2.5 nM.

`CC[C@@H]1/C=C(\C)C[C@H](C)C[C@H](OC)[C@H]2O[C@@](O)(C(=O)C(=O)N3CCCC[C@H]3C(=O)O[C@H](/C(C)=C/[C@@H]3CC[C@H]([S+]([O-])CCC(=O)OCc4ccccc4)[C@H](OC)C3)[C@H](C)[C@@H](O)CC1=O)[C@H](C)C[C@@H]2OC` (stereo partly shown) [Example 63] yielded an IC50 (Homo sapiens, Lymphocyte) of 15 nM.

Turning to `CC[C@@H]1/C=C(\C)C[C@H](C)C[C@H](OC)[C@H]2O[C@@](O)(C(=O)C(=O)N3CCCC[C@H]3C(=O)O[C@H](/C(C)=C/[C@@H]3CC[C@H](S(=O)(=O)CCC(=O)OCc4ccccc4)[C@H](OC)C3)[C@H](C)[C@@H](O)CC1=O)[C@H](C)C[C@@H]2OC` [Example 64], the IC50 (Homo sapiens, Lymphocyte) amounted to 9.2 nM.

The compound `CC[C@@H]1/C=C(\C)C[C@H](C)C[C@H](OC)[C@H]2O[C@@](O)(C(=O)C(=O)N3CCCC[C@H]3C(=O)O[C@H](/C(C)=C/[C@@H]3CC[C@H]([S+]([O-])CCC(=O)N(O)C(C)C)[C@H](OC)C3)[C@H](C)[C@@H](O)CC1=O)[C@H](C)C[C@@H]2OC` (stereo partly shown) [Example 72] returned an IC50 (Homo sapiens, Lymphocyte) of 32.2 nM.

With `CC[C@@H]1/C=C(\C)C[C@H](C)C[C@H](OC)[C@H]2O[C@@](O)(C(=O)C(=O)N3CCCC[C@H]3C(=O)O[C@H](/C(C)=C/[C@@H]3CC[C@H]([S+]([O-])CC(=O)O)[C@H](OC)C3)[C@H](C)[C@@H](O)CC1=O)[C@H](C)C[C@@H]2OC` (stereo partly shown) [Example 74], 57.7 nM corresponded to half-maximal inhibition (Homo sapiens, Lymphocyte) (IC50).

As for `CC[C@@H]1/C=C(\C)C[C@H](C)C[C@H](OC)[C@H]2O[C@@](O)(C(=O)C(=O)N3CCCC[C@H]3C(=O)O[C@H](/C(C)=C/[C@@H]3CC[C@H](S(=O)(=O)CCC(=O)O)[C@H](OC)C3)[C@H](C)[C@@H](O)CC1=O)[C@H](C)C[C@@H]2OC` [Example 78], half-maximal inhibition (Homo sapiens, Lymphocyte) (IC50) was put at 30 nM.

Where the note is “Homo sapiens, Lymphocyte”, `C=CCS[C@H]1CC[C@@H](/C=C(\C)[C@H]2OC(=O)[C@@H]3CCCCN3C(=O)C(=O)[C@]3(O)O[C@H]([C@@H](OC)C[C@@H](C)C/C(C)=C/[C@@H](CC)C(=O)C[C@H](O)[C@H]2C)[C@@H](OC)C[C@H]3C)C[C@H]1OC` [Example 79] registered an IC50 of 14 nM.

Turning to `CC[C@@H]1/C=C(\C)C[C@H](C)C[C@H](OC)[C@H]2O[C@@](O)(C(=O)C(=O)N3CCCC[C@H]3C(=O)O[C@H](/C(C)=C/[C@@H]3CC[C@H](SCC(C)=O)[C@H](OC)C3)[C@H](C)[C@@H](O)CC1=O)[C@H](C)C[C@@H]2OC` [Example 80], where the note is “Homo sapiens, Lymphocyte”, the IC50 amounted to 4.3 nM.

`CC[C@@H]1/C=C(\C)C[C@H](C)C[C@H](OC)[C@H]2O[C@@](O)(C(=O)C(=O)N3CCCC[C@H]3C(=O)O[C@H](/C(C)=C/[C@@H]3CC[C@H](SCC(C)=NNC(N)=O)[C@H](OC)C3)[C@H](C)[C@@H](O)CC1=O)[C@H](C)C[C@@H]2OC` [Example 81A] showed an IC50 (Homo sapiens, Lymphocyte) of 1.3 nM.

The compound `CC[C@@H]1/C=C(\C)C[C@H](C)C[C@H](OC)[C@H]2O[C@@](O)(C(=O)C(=O)N3CCCC[C@H]3C(=O)O[C@H](/C(C)=C/[C@@H]3CC[C@H](SCC(C)=NNC(N)=O)[C@H](OC)C3)[C@H](C)[C@@H](O)CC1=O)[C@H](C)C[C@@H]2OC` [Example 81B] yielded an IC50 of 1.6 nM.

`CC[C@@H]1/C=C(\C)C[C@H](C)C[C@H](OC)[C@H]2O[C@@](O)(C(=O)C(=O)N3CCCC[C@H]3C(=O)O[C@H](/C(C)=C/[C@@H]3CC[C@H](SCC(C)=NOC)[C@H](OC)C3)[C@H](C)[C@@H](O)CC1=O)[C@H](C)C[C@@H]2OC` [Example 82] gave an IC50 (Homo sapiens, Lymphocyte) of 64 nM.

Turning to `CC[C@@H]1/C=C(\C)C[C@H](C)C[C@H](OC)[C@H]2O[C@@](O)(C(=O)C(=O)N3CCCC[C@H]3C(=O)O[C@H](/C(C)=C/[C@@H]3CC[C@H](SCC(C)=NO)[C@H](OC)C3)[C@H](C)[C@@H](O)CC1=O)[C@H](C)C[C@@H]2OC` [Example 83A], where the note is “Homo sapiens, Lymphocyte”, the IC50 is 70 nM.

On to `CC[C@@H]1/C=C(\C)C[C@H](C)C[C@H](OC)[C@H]2O[C@@](O)(C(=O)C(=O)N3CCCC[C@H]3C(=O)O[C@H](/C(C)=C/[C@@H]3CC[C@H](SCC(C)=NO)[C@H](OC)C3)[C@H](C)[C@@H](O)CC1=O)[C@H](C)C[C@@H]2OC` [Example 83B], for which half-maximal inhibition (IC50) required 67 nM.

Regarding `CC[C@@H]1/C=C(\C)C[C@H](C)C[C@H](OC)[C@H]2O[C@@](O)(C(=O)C(=O)N3CCCC[C@H]3C(=O)O[C@H](/C(C)=C/[C@@H]3CC[C@H](SC(=O)C(C)(C)C)[C@H](OC)C3)[C@H](C)[C@@H](O)CC1=O)[C@H](C)C[C@@H]2OC` [Example 85], the IC50 (Homo sapiens, Lymphocyte) was 0.48 nM.

`CC[C@@H]1/C=C(\C)C[C@H](C)C[C@H](OC)[C@H]2O[C@@](O)(C(=O)C(=O)N3CCCC[C@H]3C(=O)O[C@H](/C(C)=C/[C@@H]3CC[C@H](SC(=O)C(C)C)[C@H](OC)C3)[C@H](C)[C@@H](O)CC1=O)[C@H](C)C[C@@H]2OC` [Example 86] registered an IC50 (Homo sapiens, Lymphocyte) of 1.7 nM.

Where the note is “Homo sapiens, Lymphocyte”, `CCC(=O)S[C@H]1CC[C@@H](/C=C(\C)[C@H]2OC(=O)[C@@H]3CCCCN3C(=O)C(=O)[C@]3(O)O[C@H]([C@@H](OC)C[C@@H](C)C/C(C)=C/[C@@H](CC)C(=O)C[C@H](O)[C@H]2C)[C@@H](OC)C[C@H]3C)C[C@H]1OC` [Example 88] had an IC50 of 0.61 nM.

For the origin of these results see patent US5604234A, “Substituted thiol macrolactam immunomodulators” (Abbott Laboratories, priority 1995, dated 1997).
